{"source": "patent US20090111182A1", "about": "“Method for Propagation of Plant” (priority 2005, published 2009)", "key": {"[1]": {"system": "embryogenic callus of the cultivar Petite", "assay": "Somatic embryo induction in liquid medium (shaken Erlenmeyer flask), effects of proline and glutamic acid", "format": "cell-based, Spathiphyllum (cultivar Petite)", "details": "0.05 g callus, 40 ml medium, 6 weeks", "experimental": "(§1) MS liquid medium (pH 5.8) containing 1% sucrose, 3% sorbitol, and MES 5 mM was used as basal medium. Proline and glutamic acid were added to the media at the following concentrations. […] The fresh weights the thus induced somatic embryos were measured (Table 1)."}, "[2]": {"system": "embryogenic callus from Double Take", "assay": "Somatic embryo induction in liquid medium (flask), effects of sugar composition and addition of BA", "format": "cell-based, Spathiphyllum (cultivar Double Take)", "details": "sucrose 0%, sorbitol 3%, fructose 1.1%, BA 0 ppm", "experimental": "as §1\nMedia with compositions listed in Table 2 were prepared (compositions other than those listed in Table 2 were the same as those of the “somatic embryo induction medium.”)."}}, "data": [{"smiles": "N[C@@H](CCC(=O)O)C(=O)O", "note": "[Glutamic acid, glutamic acid]", "values": [{"measurement": "Amount of embryo collected", "setting": "[1]; proline 0 mM, glutamic acid 3 mM", "value": 3.5, "unit": "g/flask"}]}, {"smiles": "O=C(O)[C@@H]1CCCN1", "note": "[Proline, proline]", "values": [{"measurement": "Amount of embryo collected", "setting": "[1]; proline 3 mM, glutamic acid 0 mM", "value": 3.4, "unit": "g/flask"}]}, {"smiles": "O=C(CO)[C@@H](O)[C@H](O)[C@H](O)CO", "note": "[Fructose, fructose]", "values": [{"measurement": "Weight of somatic embryo", "setting": "[2]", "value": "3.8 (g)/flask"}]}]}
